The values below come from ChEMBL document CHEMBL5584307, “Discovery of a Potent and Orally Bioavailable Xanthine Oxidase/Urate Transporter 1 Dual Inhibitor as a Potential Treatment for Hyperuricemia and Gout” (J Med Chem, 2024).

Where only a bound is given, the exact number is not on record here.

Data set [1] addresses T1, Solute carrier family 22 member 12 (Homo sapiens, UniProt Q96S37).
T1 sequence (Q96S37 whole entry): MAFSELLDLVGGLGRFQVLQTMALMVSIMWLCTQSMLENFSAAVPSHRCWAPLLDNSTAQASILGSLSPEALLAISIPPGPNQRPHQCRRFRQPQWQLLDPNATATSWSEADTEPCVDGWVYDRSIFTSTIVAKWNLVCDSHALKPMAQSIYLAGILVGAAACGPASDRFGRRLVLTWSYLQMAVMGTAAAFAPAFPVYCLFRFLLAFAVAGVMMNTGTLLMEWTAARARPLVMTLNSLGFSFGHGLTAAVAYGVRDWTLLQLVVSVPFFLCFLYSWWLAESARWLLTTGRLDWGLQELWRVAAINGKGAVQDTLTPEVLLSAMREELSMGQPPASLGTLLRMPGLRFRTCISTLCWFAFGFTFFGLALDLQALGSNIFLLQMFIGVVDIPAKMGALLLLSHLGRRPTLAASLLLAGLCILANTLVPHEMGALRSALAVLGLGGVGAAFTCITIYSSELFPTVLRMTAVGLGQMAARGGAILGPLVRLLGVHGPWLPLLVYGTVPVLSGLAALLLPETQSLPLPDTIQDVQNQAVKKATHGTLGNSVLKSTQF
Kind of data set: Inhibition of URAT1 (unknown origin) by absorbance based assay.

For data set [2], the target named is T2, Xanthine dehydrogenase/oxidase (Homo sapiens, UniProt P47989). The data set can be described thus: Inhibition of xanthine oxidase (unknown origin) by absorbance based assay.
T2 sequence (P47989 whole entry): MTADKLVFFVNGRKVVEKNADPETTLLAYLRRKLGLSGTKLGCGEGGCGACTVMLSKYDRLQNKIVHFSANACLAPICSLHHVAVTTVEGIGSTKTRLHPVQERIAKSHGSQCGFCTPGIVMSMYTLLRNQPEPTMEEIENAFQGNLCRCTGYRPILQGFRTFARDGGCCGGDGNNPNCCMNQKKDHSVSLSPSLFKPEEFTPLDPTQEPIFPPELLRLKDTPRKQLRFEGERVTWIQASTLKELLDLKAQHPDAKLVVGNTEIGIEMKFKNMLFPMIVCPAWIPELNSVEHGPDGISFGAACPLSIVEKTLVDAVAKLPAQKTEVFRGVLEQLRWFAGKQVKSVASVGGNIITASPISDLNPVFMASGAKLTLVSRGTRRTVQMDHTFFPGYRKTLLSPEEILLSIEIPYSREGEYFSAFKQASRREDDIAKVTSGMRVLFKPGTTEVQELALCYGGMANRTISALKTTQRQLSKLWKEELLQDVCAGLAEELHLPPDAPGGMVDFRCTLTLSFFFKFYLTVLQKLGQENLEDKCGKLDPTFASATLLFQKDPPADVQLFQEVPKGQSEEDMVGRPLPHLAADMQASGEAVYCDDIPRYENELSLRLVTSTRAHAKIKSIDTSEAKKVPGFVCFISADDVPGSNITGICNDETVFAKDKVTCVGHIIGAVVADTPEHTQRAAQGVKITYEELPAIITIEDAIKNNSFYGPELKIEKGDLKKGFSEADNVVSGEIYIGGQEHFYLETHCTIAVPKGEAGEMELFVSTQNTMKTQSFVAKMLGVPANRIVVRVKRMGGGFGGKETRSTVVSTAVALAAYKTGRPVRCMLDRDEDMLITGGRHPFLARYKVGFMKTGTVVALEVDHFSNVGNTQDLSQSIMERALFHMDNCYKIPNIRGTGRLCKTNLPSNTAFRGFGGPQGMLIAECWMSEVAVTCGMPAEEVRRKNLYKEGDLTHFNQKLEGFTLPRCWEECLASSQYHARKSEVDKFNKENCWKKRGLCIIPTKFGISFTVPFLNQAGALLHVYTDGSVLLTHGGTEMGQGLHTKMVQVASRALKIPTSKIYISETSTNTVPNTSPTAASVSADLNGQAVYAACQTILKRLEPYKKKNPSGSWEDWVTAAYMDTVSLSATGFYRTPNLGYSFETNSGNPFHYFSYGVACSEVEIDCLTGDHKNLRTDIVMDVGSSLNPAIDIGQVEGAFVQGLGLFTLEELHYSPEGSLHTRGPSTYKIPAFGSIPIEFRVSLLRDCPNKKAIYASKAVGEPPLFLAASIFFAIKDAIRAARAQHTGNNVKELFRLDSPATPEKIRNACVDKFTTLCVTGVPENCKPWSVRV
In data set [3] the test system is Sapajus apella. The conditions noted are these: dose 30.0 mg/kg/day, route po, time 3.0 day.
Data set [4] has as its target T2, Xanthine dehydrogenase/oxidase. Kind of data set: Inhibition of xanthine oxidase (unknown origin) at 10 uM by absorbance based assay.
Data set [5] concerns Sapajus apella. Kind of data set: Urate lowering effect in Tufted capuchin monkey assessed as fraction excretion of uric acid at 30 mg/kg/day, po qd for 3 days consecutively relative to control. It counts as functional. The conditions noted are these: time 3 day.
The subject of data set [6] is Sapajus apella. The data set can be described thus: Urate lowering effect in Tufted capuchin monkey assessed as serum xanthine level at 2 mg/kg/day, po qd for 3 days consecutively. It counts as functional. The conditions noted are these: time 3 day.
The target of data set [7] is T1, Solute carrier family 22 member 12. Kind of data set: Inhibition of URAT1 (unknown origin) at 10 uM by absorbance based assay.
The subject of data set [8] is Sapajus apella. The following applies: dose 2.0 mg/kg/day, route po, time 3.0 day.
Data set [9] concerns Sapajus apella. Kind of data set: Urate lowering effect in Tufted capuchin monkey assessed as urine xanthine level at 2 mg/kg/day, po qd for 3 days consecutively. It counts as functional. The following applies: time 3 day.
A short description of data set [10]: Oral bioavailability in overnight-fasted Sprague-Dawley rat at 5 mg/kg measured upto 24 hrs by LC-MS/MS analysis. It counts as ADME, organism-based. The following applies: in vivo.
A short description of data set [11]: Clearance in overnight-fasted Sprague-Dawley rat at 1 mg/kg, iv measured upto 24 hrs by LC-MS/MS analysis. It counts as ADME, organism-based. The conditions noted are these: in vivo.
The nature of data set [12]: Cmax in overnight-fasted Sprague-Dawley rat at 5 mg/kg, po measured upto 24 hrs by LC-MS/MS analysis. It counts as ADME, organism-based. The following applies: in vivo.
Data set [13] can be described thus: Volume of distribution at steady state in overnight-fasted Sprague-Dawley rat at 5 mg/kg, po or 1 mg/kg, iv measured upto 24 hrs by LC-MS/MS analysis. It counts as ADME, organism-based. The conditions noted are these: in vivo.
Data set [14] can be described thus: AUC (last) in overnight-fasted Sprague-Dawley rat at 5 mg/kg, po measured upto 24 hrs by LC-MS/MS analysis. It counts as ADME, organism-based. The conditions noted are these: in vivo.
Data set [15] is described as follows: AUC (last) in overnight-fasted Sprague-Dawley rat at 1 mg/kg, iv measured upto 24 hrs by LC-MS/MS analysis. It counts as ADME, organism-based. The conditions noted are these: in vivo.
A short description of data set [16]: Half life in overnight-fasted Sprague-Dawley rat at 5 mg/kg, po measured upto 24 hrs by LC-MS/MS analysis. It counts as ADME, organism-based. The conditions noted are these: in vivo.

For the compound `N#Cc1cc(-c2ccc(C(=O)O)c(O)c2)c2occ(C(F)(F)F)c2c1`, the figures for the concentration for half-maximal inhibition (IC50) in [1] and in [2] were 1.65 µM and 0.008 µM, respectively.

In the case of `CC(C)COc1ccc(-c2ccc(C(=O)O)c(O)c2)cc1C#N`, the IC50 (as a rule, the point on the concentration scale where inhibition reaches its midpoint) turned out to be 8.3 µM in [1] and 0.018 µM in data set [2].

In the data set on Sapajus apella [3], `CCc1oc2ccccc2c1C(=O)c1cc(Br)c(O)c(Br)c1` [BENZBROMARONE] registered an AUC of 894000 ng·h/mL. The “inhibition (INH)” value in [4] is reported as “Not Active”. Further, in the data set with Sapajus apella [5], the Activity was found to be 42.3%.

As to `N#Cc1cc(-c2ccc(C(=O)O)c(O)c2)c2oc(C(F)(F)F)cc2c1`, the IC50 in data set [1] worked out at 0.104 µM; in data set [2] it was 0.347 µM.

Take `N#Cc1cc(-c2ccc(C(=O)O)c(O)c2)c2cc[nH]c2c1`: the concentration for half-maximal inhibition (IC50) is over 10 µM in [1] and 0.027 µM in [2].

Take `N#Cc1cc2c(c(-c3ccc(C(=O)O)c(O)c3)c1)CCC2`: the half-inhibitory concentration (IC50) amounted to 0.107 µM in [1] and 0.56 µM in data set [2].

In the case of `CC(C)COc1ccc(-c2cccc(O)c2C(=O)O)cc1C#N`, the IC50 in data set [1] and in data set [2] was over 10 µM each time.

Take `Cc1cc2cc(C#N)cc(-c3ccc(C(=O)O)c(O)c3)c2o1`: the 50% inhibitory concentration (IC50) is 0.623 µM in data set [1] and 0.061 µM in data set [2].

With `Cc1nc(-c2ccc(OCC(C)C)c(C#N)c2)sc1C(=O)O` [FEBUXOSTAT], the Activity is 6.61 µg·h/mL with Sapajus apella [6] and 32.1 µg·h/mL with Sapajus apella [9]. In addition, the “inhibition (INH)” value in data set [7] is reported as “Not Active”. For the same compound, the AUC with Sapajus apella [8] is 478000 ng·h/mL.

In the case of `N#Cc1cc(-c2ccc(C(=O)O)c(O)c2)c2occc2c1`, the bioavailability in [10] came out at 131%. Besides, in data set [11], the clearance (commonly a measure of how efficiently the substance is removed, as volume per time) worked out at 2.4 mL/min/kg. Besides, the peak concentration (Cmax) (in general, the maximum level reached in the sampled fluid or tissue) in [12] is 6830 ng/mL. Moreover, the Vdss in data set [13] amounted to 0.399 L/kg. For the same compound, the AUC(0-t) (in general, the area under the concentration-time curve up to a stated or last time point) at 24 h in data set [14] was determined as 44400 ng·h/mL; in [15] it was 6860 ng·h/mL. Besides, the half-life (commonly the time in which the quantity being followed falls by half) in data set [16] was 3.45 h.

For `N#Cc1cc(-c2ccc(C(=O)O)c(O)c2)c2ccsc2c1`, the bioavailability in data set [10] was found to be 55.8%. Also, the clearance in [11] stood at 18.6 mL/min/kg. For the same compound, the maximum concentration (Cmax) in data set [12] worked out at 2050 ng/mL. Besides, the Vdss in [13] was 0.4 L/kg. The values for the AUC(0-t) at 24 h in data set [14] and in data set [15] were 2430 ng·h/mL and 902 ng·h/mL, respectively. In addition, in data set [16], the half-life was 1.86 h.

For the compound `COc1cc(-c2cc(C#N)cc3ccoc23)ccc1C(=O)O`, the values for the IC50 in data set [1] and in data set [2] were 3.75 µM and over 10 µM, respectively.

As to `N#Cc1cccc(-c2ccc(C(=O)O)c(O)c2)c1`, the IC50 in data set [1] worked out at 2.2 µM; in [2], 0.037 µM.

In the case of `O=C(O)c1ccc(-c2cc(C(F)(F)F)cc3ccoc23)cc1O`, the IC50 in data set [1] turned out to be 3.19 µM; in [2], 0.388 µM.

With `N#Cc1cc2c(c(-c3ccc(C(=O)O)c(O)c3)c1)OCC2`, the half-inhibitory concentration (IC50) was determined as 0.352 µM in data set [1] and 0.046 µM in data set [2].

As to `N#Cc1cc(-c2ccc(C(=O)O)c(O)c2)c2ccoc2c1`, the bioavailability in data set [10] turned out to be 99.5%. This compound also registered a clearance in [11] of 1.93 mL/min/kg. The same compound registered a Cmax in data set [12] of 6550 ng/mL. Moreover, in data set [2], the IC50 turned out to be 0.039 µM. In data set [13], this compound displayed a Vdss of 0.155 L/kg. Moreover, the area under the curve AUC(0-t) at 24 h worked out at 43200 ng·h/mL in data set [14] and 8530 ng·h/mL in [15]. Further, the half-life in [16] was 2.66 h.

In the case of `N#Cc1cc(-c2ccc(C(=O)O)cc2)c2occc2c1`, the half-maximal inhibitory concentration (IC50) was 0.598 µM in [1] and 0.591 µM in data set [2].

For `N#Cc1cc(-c2ccc(C(=O)O)c(O)c2)c2ncsc2c1`, the results for the half-inhibitory concentration (IC50) in data set [1] and in data set [2] were 3.64 µM and 0.101 µM, respectively.

As to `N#Cc1cc(-c2ccc(C(=O)O)c(O)c2)c2sccc2c1`, the IC50 in [1] worked out at 0.444 µM; in data set [2] it was 0.133 µM.

Take `N#Cc1cc(-c2ccc(C(=O)O)c(O)c2)c2oc(Cl)cc2c1`: in [10], the bioavailability is 93.9%. Further, in data set [11], the clearance was determined as 2.77 mL/min/kg. This compound also registered a 50% inhibitory concentration (IC50) in data set [1] of 0.037 µM. The same compound registered a Cmax in data set [12] of 3700 ng/mL. Further, the Vdss in data set [13] came out at 0.4 L/kg. For the same compound, the AUC(0-t) at 24 h in [14] was 28100 ng·h/mL; in data set [15], 5480 ng·h/mL. Besides, the half-life in [16] is 3.05 h.
